Source: patent publication US20080286752A1, “Methods for the production of HCV, assaying HCV entry, and screening drugs and cellular receptors for HCV” (priority 2005, published 2008)

How the values were obtained:
HCV pseudoparticles = settings: reports; cited from earlier work
[1] = biological target: T1, HCV E1 and E2 proteins (C22E1E2, genotype 1a) (Hepatitis C virus genotype 1a, UniProt P27958, H297R/K360A/N321D/N391S/R602W/V212I/Y589H); assay type: cell-based
T1 construct: residues 24-215 are E1, and residues 216-577 are E2; expressed in transfected cells; host or cells: 293T effector cells transfected with pcDNA3.1-HE1E2, co-cultured with Huh-7.5 target cells

Sequence | inhibition of transduction with pseudoparticles (HCV pseudoparticles) | effect on HCV E1E2 mediated fusion ([1]; peptide added to cells for an hour before fusion, concentrations up to 10 mM) | inhibition of HCV E1E2 mediated fusion ([1]; peptide added to cells at concentrations of 10 nM or above for an hour before fusion)
SAYQVRNSSGLYHVTNDC | does not | little effect | 
SSGLYHVTNDCPNSSIVY | inhibits |  | ~40%
